In article PMC6952414 (Nature Communications, 2020):
Several values for one entry are separate records, joined by “and”; a condition that tells them apart may be missing. Identical values can stand only once.

These substances were tested on HA.
Type: binding, IAV H1N1 strain A/Puerto Rico/8/1934 (PR8)

Row | Substance | HA x ratio
1 | ARRVNHH | 0.61
2 | DRRVNHH | 0.65
3 | ERRVNHH | 0.60
4 | FRRVNHH | 0.71
5 | GRRVNHH | 0.37
6 | HRRVNHH | 0.38
7 | IRRVNHH | 0.41
8 | KRRVNHH | 0.87
9 | LRRVNHH | 0.80
10 | MRRVNHH | 0.73
11 | NRRVNHH | 0.43
12 | PRRVNHH | 0.56
13 | QRRVNHH | 0.78
14 | RARDNHH | 0.61 and 0.73 and 0.72
15 | RARVNHH | 1.61
16 | RDRVNHH | 0.80
17 | RERVNHH | 0.54
18 | RFPVNHH | 1.20 and 1.08 and 1.00
19 | RFRVNHH | 0.56
20 | RGPVNHH | 1.56 and 1.10 and 0.92
21 | RGRDNHH | 0.78 and 1.32 and 1.08
22 | RGRVNHH | 1.41
23 | RHPVNHH | 0.90 and 1.23 and 0.70
24 | RHRDNHH | 1.05 and 1.04 and 0.77
25 | RHRVNHH | 1.57

Row | Substance | HA x ratio
26 | RIPVNHH | 1.46 and 1.18 and 0.86
27 | RIRVNHH | 1.38
28 | RKPVNHH | 1.27 and 1.55 and 1.97
29 | RKRDNHH | 1.05 and 0.70
30 | RKRVNHH | 1.35
31 | RLPVNHH | 0.45 and 0.68 and 0.79
32 | RLRVNHH | 1.05
33 | RMRDNHH | 0.77 and 0.40 and 0.59
34 | RMRVNHH | 0.90
35 | RNPVNHH | 1.21 and 1.04 and 0.76
36 | RNRVNHH | 1.11
37 | RPPVNHH | 0.98 and 0.96 and 0.50
38 | RPRVNHH | 0.60
39 | RQPVNHH | 0.63 and 0.91 and 1.08
40 | RQRDNHH | 1.02 and 1.69 and 1.17
41 | RQRVNGG | 0.75
42 | RRADNHH | 0.49 and 0.70 and 0.62
43 | RRAVNHH | 0.96
44 | RRDVNHH | 0.60
45 | RREVNHH | 3.11
46 | RRFDNHH | 0.56 and 0.46 and 0.45
47 | RRFVNHH | 2.86
48 | RRGVNHH | 2.40
49 | RRHDNHH | 1.24 and 1.02 and 1.09
50 | RRHVNHH | 1.09

Row | Substance | HA x ratio
51 | RRIVNHH | 1.20
52 | RRKVNHH | 0.82
53 | RRLVNHH | 0.69
54 | RRMDNHH | 0.63 and 1.00 and 0.79
55 | RRMVNHH | 0.79
56 | RRNDNHH | 0.51 and 0.36 and 0.50
57 | RRNVNHH | 0.61
58 | RRPKNHH | 0.76 and 0.64 and 0.51
59 | RRPLNHH | 0.82 and 0.76 and 0.42
60 | RRPNNHH | 1.47 and 1.90 and 1.08
61 | RRPRNHH | 0.65 and 0.78 and 0.39
62 | RRPVNHE | 1.47 and 1.30 and 1.11
63 | RRPVNHF | 1.54 and 1.38 and 2.67
64 | RRPVNHK | 1.14 and 0.99 and 0.62
65 | RRPVNHQ | 1.37 and 1.26 and 0.94
66 | RRPVNHS | 1.08 and 1.99 and 1.46
67 | RRPVNHT | 0.76 and 1.24 and 0.77
68 | RRPVNHY | 1.43 and 0.76 and 0.77
69 | RRQVNHH | 2.55
70 | RRRANHH | 0.36
71 | RRRDNHA | 1.07 and 0.73 and 0.58
72 | RRRDNHD | 0.55 and 0.60 and 0.30
73 | RRRDNHL | 0.92 and 0.83 and 0.51
74 | RRRDNHP | 0.54 and 0.61 and 0.45
75 | RRRDNHQ | 0.36 and 0.45 and 0.67

Row | Substance | HA x ratio
76 | RRRDNHV | 1.05 and 1.22 and 1.16
77 | RRRENHH | 0.59
78 | RRRFNHH | 0.78
79 | RRRGNHH | 0.46
80 | RRRHNHH | 0.30
81 | RRRINHH | 0.39
82 | RRRKNHH | 1.55
83 | RRRLNHH | 0.42
84 | RRRMNHH | 2.13
85 | RRRNNHH | 2.20
86 | RRRPNHH | 0.36
87 | RRRQNHH | 1.81
88 | RRRRNHH | 1.09
89 | RRRSNHH | 0.40
90 | RRRTNHH | 0.28
91 | RRRVAHH | 1.62
92 | RRRVDHH | 1.09
93 | RRRVEHH | 0.64
94 | RRRVFHH | 0.71
95 | RRRVGHH | 0.56
96 | RRRVHHH | 0.35
97 | RRRVIHH | 0.63
98 | RRRVKHH | 1.27
99 | RRRVLHH | 1.21
100 | RRRVMHH | 0.90

Row | Substance | HA x ratio
101 | RRRVNAH | 0.91
102 | RRRVNDH | 0.72
103 | RRRVNEH | 0.49
104 | RRRVNFH | 0.93
105 | RRRVNGH | 0.70
106 | RRRVNHA | 0.56
107 | RRRVNHD | 0.46
108 | RRRVNHE | 1.77
109 | RRRVNHF | 0.66
110 | RRRVNHG | 1.43
111 | RRRVNHI | 0.72
112 | RRRVNHK | 0.59
113 | RRRVNHL | 0.48
114 | RRRVNHM | 0.42
115 | RRRVNHN | 0.66
116 | RRRVNHP | 1.63
117 | RRRVNHQ | 0.72
118 | RRRVNHR | 1.48
119 | RRRVNHS | 1.03
120 | RRRVNHT | 1.23
121 | RRRVNHV | 0.49
122 | RRRVNHW | 0.44
123 | RRRVNHY | 0.36
124 | RRRVNIH | 0.95
125 | RRRVNKH | 1.27

Row | Substance | HA x ratio
126 | RRRVNLH | 1.09
127 | RRRVNMH | 1.22
128 | RRRVNNH | 1.00
129 | RRRVNPH | 0.89
130 | RRRVNQH | 0.65
131 | RRRVNRH | 0.73
132 | RRRVNSH | 0.86
133 | RRRVNTH | 0.88
134 | RRRVNVH | 0.80
135 | RRRVNWH | 0.80
136 | RRRVNYH | 1.55
137 | RRRVPHH | 0.90
138 | RRRVQHH | 0.71
139 | RRRVRHH | 1.24
140 | RRRVSHH | 0.61
141 | RRRVTHH | 0.46
142 | RRRVVHH | 1.27
143 | RRRVWHH | 0.57
144 | RRRVYHH | 1.10
145 | RRRWNHH | 0.30
146 | RRRYNHH | 0.39
147 | RRSFNHH | 0.82 and 0.91 and 0.46
148 | RRSKNHH | 1.10 and 0.79 and 1.25
149 | RRSMNHH | 0.75 and 0.55
150 | RRSNNHH | 0.73 and 0.74 and 0.37

Row | Substance | HA x ratio
151 | RRSPNHH | 0.39 and 0.47 and 0.43
152 | RRSRNHH | 1.02 and 0.86 and 0.77
153 | RRTVNHH | 1.15
154 | RRVVNHH | 0.57
155 | RRWVNHH | 0.66
156 | RRYDNHH | 1.25 and 0.92 and 1.56
157 | RRYVNHH | 0.69
158 | RSPVNHH | 1.07 and 0.89 and 0.72
159 | RSRVNHH | 2.42
160 | RTRDNHH | 1.38 and 1.50
161 | RTRVNHH | 2.79
162 | RVPVNHH | 1.05 and 1.07 and 0.75
163 | RVRVNHH | 0.68
164 | RWRDNHH | 1.15 and 1.05 and 0.76
165 | RWRVNHH | 1.99
166 | RYRVNHH | 1.46
167 | SRRVNHH | 0.49
168 | TRRVNHH | 0.39
169 | VRRVNHH | 0.98
170 | WRRVNHH | 0.56
171 | YRRVNHH | 1.34
